Source: patent US6433014B1, “Compounds consisting in particular of effectors of the central nervous system receptors sensitive excitatory amino acids, preparation and biological applications” (Centre National de la Recherche Scientifique (C.N.R.S.), priority 1997, dated 2002)

What was measured:
[1] = target: T1, mGluR1a (Rattus norvegicus, UniProt P23385); experiment: accumulation of inositol phosphates (phospholipase C activation) in transfected HEK 293 cells expressing mGluR1a; format: cell-based
T1 construct: expressed in transfected cells; host or cells: HEK 293
T1 sequence (P23385 19-1199): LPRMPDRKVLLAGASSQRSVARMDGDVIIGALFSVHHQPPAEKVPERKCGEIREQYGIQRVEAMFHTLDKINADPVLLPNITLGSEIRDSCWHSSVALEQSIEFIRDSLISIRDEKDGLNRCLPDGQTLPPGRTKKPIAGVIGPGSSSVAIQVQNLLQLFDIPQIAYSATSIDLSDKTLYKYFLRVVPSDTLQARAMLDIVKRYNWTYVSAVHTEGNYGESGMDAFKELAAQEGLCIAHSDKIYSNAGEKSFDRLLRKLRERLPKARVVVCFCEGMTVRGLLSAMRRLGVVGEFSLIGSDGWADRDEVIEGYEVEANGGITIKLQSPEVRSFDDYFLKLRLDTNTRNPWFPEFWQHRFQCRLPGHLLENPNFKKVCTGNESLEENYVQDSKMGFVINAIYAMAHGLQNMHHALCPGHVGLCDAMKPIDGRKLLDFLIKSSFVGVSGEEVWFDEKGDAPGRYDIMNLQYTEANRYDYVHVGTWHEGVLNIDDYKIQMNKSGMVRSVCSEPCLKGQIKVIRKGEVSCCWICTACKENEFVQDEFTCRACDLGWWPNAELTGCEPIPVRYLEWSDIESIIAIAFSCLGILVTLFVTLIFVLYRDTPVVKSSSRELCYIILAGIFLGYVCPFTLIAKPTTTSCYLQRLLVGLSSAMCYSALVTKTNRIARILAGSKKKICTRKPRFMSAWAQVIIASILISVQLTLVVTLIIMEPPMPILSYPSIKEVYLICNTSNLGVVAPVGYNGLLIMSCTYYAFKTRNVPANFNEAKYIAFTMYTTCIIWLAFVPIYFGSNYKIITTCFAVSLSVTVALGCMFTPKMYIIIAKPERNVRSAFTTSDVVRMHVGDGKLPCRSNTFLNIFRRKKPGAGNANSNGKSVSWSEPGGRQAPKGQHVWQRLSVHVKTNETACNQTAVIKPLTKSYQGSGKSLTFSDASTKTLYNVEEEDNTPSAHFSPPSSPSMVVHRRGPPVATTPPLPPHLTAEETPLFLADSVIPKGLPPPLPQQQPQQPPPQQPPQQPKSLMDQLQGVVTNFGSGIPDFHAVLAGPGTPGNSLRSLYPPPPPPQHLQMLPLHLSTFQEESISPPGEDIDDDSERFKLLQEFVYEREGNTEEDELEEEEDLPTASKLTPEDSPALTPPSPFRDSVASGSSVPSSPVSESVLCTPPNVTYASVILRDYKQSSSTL
Experimental: (§1) For this purpose, the activation of phospholipase C was measured (accumulation of inositol phosphates).
(§2) The HEK 293 cells are cultured in a Dulbecco's modified Eagle medium (DMEM, Gibco BRL) to which 10% of foetal calf serum has been added, and transfected by electroporation as previously described by Gomeza et al., Molecular Pharmacology, 1996, 50:923-930 (1996).
(§3) The electroporation is carried out in a total volume of 300 μl with 10 μg of supporting DNA, plasmid DNA containing mGluR1a (0.3 μg), mGluR2 (2 μg) or mGluR4a (5 μg) and 10^7 cells.
(§4) Determination of the accumulation of inositol phosphates (IP).
(§5) The determination of the accumulation of IP in transfected cells is carried out as described by Gomeza after labelling the cells for approximately 14 hours with [^3H]-myo-inositol (23.4 Ci/mol, NEN, France).
(§6) Stimulation is carried out for 30 minutes in a medium containing 10 mM LiCl in the presence of the drugs tested. The formation of the basic IP is determined after 30 minutes of incubation in the presence of 10 mM LiCl and pyruvate glutamate transaminase (1 U/ml) degrading the glutamate (Glu) and 2 mM of pyruvate in order to avoid the possible effects of Glu released by the cells. The results are expressed in the quantity of IP product with respect to the radioactivity present in the membranes.

[2] = target: T2, mGluR2 (Rattus norvegicus, UniProt P31421); experiment: accumulation of inositol phosphates in transfected HEK 293 cells expressing mGluR2 co-expressed with chimeric G protein; format: cell-based
T2 construct: expressed in transfected cells; host or cells: HEK 293
T2 sequence (P31421 19-872): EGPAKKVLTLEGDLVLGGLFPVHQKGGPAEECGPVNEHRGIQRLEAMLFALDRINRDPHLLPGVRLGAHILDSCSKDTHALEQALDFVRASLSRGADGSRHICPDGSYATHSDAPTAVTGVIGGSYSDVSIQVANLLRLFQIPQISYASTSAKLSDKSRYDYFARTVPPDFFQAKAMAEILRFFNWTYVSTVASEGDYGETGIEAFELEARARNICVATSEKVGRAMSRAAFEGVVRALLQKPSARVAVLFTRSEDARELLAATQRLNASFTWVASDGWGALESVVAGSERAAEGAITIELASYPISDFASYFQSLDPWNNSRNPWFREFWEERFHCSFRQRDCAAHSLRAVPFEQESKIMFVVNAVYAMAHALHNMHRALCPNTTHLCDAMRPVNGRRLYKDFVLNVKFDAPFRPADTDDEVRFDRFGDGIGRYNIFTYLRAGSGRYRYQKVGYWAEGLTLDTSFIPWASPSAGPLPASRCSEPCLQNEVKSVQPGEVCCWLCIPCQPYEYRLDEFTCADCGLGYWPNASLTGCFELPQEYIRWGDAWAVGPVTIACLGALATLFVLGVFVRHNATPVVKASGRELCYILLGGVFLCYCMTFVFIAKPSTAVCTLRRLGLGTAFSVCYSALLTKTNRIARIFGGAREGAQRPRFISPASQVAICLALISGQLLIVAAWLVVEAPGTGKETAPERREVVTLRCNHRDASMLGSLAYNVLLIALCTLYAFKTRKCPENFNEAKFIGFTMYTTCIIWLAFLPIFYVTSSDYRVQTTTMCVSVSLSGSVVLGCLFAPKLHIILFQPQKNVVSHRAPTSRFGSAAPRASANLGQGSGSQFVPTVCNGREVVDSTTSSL
Experimental: as §1, §2, §3
In order to allow activation of the phospholipase C by mGluR2 and mGluR4a, which effect is easier to measure than the inhibition of the production of cAMP, these receptors are co-expressed with chimeric G, Gqo5 and Gqi9 proteins, as described by Gomeza. The pharmacological profiles of these 2 receptors determined according to this method, have already been described as identical to those characterized by measuring the inhibition of the formation of cAMP.
as §4, §5, §6

[3] = target: T3, mGluR4a (Rattus norvegicus, UniProt P31423); experiment: accumulation of inositol phosphates in transfected HEK 293 cells expressing mGluR4a co-expressed with chimeric G protein; format: cell-based
T3 construct: expressed in transfected cells; host or cells: HEK 293
T3 sequence (P31423 33-912): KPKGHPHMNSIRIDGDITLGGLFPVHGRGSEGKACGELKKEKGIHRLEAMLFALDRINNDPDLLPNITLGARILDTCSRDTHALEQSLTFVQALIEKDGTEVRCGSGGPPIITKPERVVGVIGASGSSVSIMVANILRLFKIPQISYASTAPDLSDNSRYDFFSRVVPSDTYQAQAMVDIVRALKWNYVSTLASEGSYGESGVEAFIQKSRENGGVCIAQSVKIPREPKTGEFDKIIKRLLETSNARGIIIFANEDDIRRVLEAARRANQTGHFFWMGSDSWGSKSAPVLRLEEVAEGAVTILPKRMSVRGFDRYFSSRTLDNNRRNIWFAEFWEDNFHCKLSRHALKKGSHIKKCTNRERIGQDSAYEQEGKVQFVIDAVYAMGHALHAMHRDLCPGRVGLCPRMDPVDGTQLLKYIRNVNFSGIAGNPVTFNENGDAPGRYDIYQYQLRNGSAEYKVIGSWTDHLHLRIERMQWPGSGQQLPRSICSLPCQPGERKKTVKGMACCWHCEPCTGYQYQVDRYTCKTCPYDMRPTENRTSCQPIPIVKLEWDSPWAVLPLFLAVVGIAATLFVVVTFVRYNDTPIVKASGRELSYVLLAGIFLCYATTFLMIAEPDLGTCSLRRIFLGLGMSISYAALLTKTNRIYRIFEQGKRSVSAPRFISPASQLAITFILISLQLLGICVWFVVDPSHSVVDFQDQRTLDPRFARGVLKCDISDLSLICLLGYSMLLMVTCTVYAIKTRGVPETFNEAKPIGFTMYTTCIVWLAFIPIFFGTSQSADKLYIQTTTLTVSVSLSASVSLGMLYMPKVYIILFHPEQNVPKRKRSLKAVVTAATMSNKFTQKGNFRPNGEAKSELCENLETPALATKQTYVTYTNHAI
Experimental: as §1, §2, §3, §4, §5, §6

[4] = system: ionotropic receptors (NMDA, AMPA and kainate receptors); experiment: patch clamp recording of granule cells of the cerebellum; format: cell-based, mice; conditions: ACPT 1 mM; NMDA or kainate 100 μM
Experimental: Culture and recording of the granule cells of the cerebellum
The granule cells of the cerebellum are cultured from 7 day-old baby mice as described by Van-Vliet, B. J., J. of Neurochemistry, 1989, .52, 1229-1239.
Recording is carried out using the technique known as a “patch clamp” in the full cell configuration and the molecules are applied using a rapid application technique.
Initially, tests were carried out in order to check whether the ACPT's were capable of activating or exercising an antagonist effect vis-à-vis the ionotropic receptors. These tests have shown that none of the ACPT enantiomers induces a current when they are placed in contact with the granule cells of the cerebellum at a concentration of 1 mM.
In the same batches, currents are on the contrary seen to be induced by NMDA (100 μM) or kainate (100 μM, which concentration allows activation of both the AMPA and kainate receptors), as envisaged given the activation of the NMDA and non-NMDA receptors.

## NC1(C(=O)O)CC(C(=O)O)C(C(=O)O)C1 (racemic) [(=)-ACPT-III, 1-amino-cyclopentane-1,3,4 tricarboxylic acid]
[1]
  inhibition of the formation of IP induced by Glu in cells expressing mGluR1a, in words: inhibit the formation of the IP's induced by the Glu
[1]; HEK 293 cells, IP accumulation induced by Glu, Shild representation, read-out: mGluR1a KB (antagonist effect)
  Kb: > 300 µM
[1]; HEK 293 cells, IP accumulation, read-out: mGluR1a EC50 (agonist effect)
  EC50: > 3000 µM
[2]
  inhibition of the responses induced by Glu in cells expressing mGluR2, in words: inhibit the responses induced by Glu
[2]; HEK 293 cells, IP accumulation induced by Glu, Shild representation, read-out: mGluR2 KB (antagonist effect)
  Kb: > 300 µM
[2]; HEK 293 cells, IP accumulation, read-out: mGluR2 EC50 (agonist effect)
  EC50: > 3000 µM
[3]; IP accumulation induced by Glu, Shild representation, read-out: mGluR4a KB (antagonist effect)
  Kb: > 3000 µM
[3]; IP accumulation, read-out: mGluR4a EC50 (agonist effect)
  EC50: 40 ± 8 µM
[4]
  inhibition of responses induced by NMDA or kainate, in words: No significant inhibition
